The values below come from ChEMBL document CHEMBL1208705, “4-(3-Trifluoromethylphenyl)-pyrimidine-2-carbonitrile as cathepsin S inhibitors: N3, not N1 is critically important” (Bioorg Med Chem Lett, 2010).

The series is described as follows: Chemical stability of the compound assessed as half life at 1.25 mM in presence of glutathione by NMR analysis. Format: physicochemical. Conditions: gsh.

Take `CN1CCN(CCCOc2ccc(-c3cccc(C#N)n3)cc2C(F)(F)F)CC1`: the half-life (commonly the time needed for the level to fall by half in the phase considered) at 1250 µM was 150 h.

`CN1CCN(CCCOc2ccc(-c3ccnc(C#N)c3)cc2C(F)(F)F)CC1`: the half-life at 1250 µM is 120 h.
